# Results as given in patent US12564635B2, “Long-lived gadolinium based tumor targeted imaging and therapy agents” (WISCONSIN ALUMNI RESEARCH FOUNDATION, priority 2015, dated 2026).
# What was measured:
# [1] = at this field strength (4.7 T); cited from earlier work
# [2] = Free Gd concentration by CHELEX solid phase extraction and ICP-MS; assay type: physicochemical; conditions: CHELEX solid phase extraction, magnetic sector ICP-MS
# Excerpt: After considering other alternatives, we decided to determine free Gd concentration by selective chelation and separation of the free Gd. We separated the Gd-DO3A-404 complex from free Gd (III) ion by CHELEX® solid phase extraction (as described by Raju, et al., J. Anal. At. Spectrom. 25 (2010), 1573-1580). Specifically, using a CHELEX® solid phase extraction column comprising an immobilized ligand (iminodiacetate) with very high affinity for free ion species of multi-valent transition and rare-earth metals, Gd was retained and then eluted using a known ratio of chelated Gd-DO3A-404 and acid-digested Gd-DO3A-404. The sample was the analyzed by magnetic sector ICP-MS to determine the concentration of free Gd.
# [3] = MR relaxivity (r1, r2) at 4.7 T; assay type: physicochemical
# Method: For initial studies, relaxivity was measured at 4.7 T. Longitudinal relaxivity, which is defined by the linear relationship between R1 relaxation rate and concentration, was measured using an inversion recovery spin echo sequence.
# Higher relaxivity results in brighter signal on a T1-weighted image, and thus indicates greater T1-weighted signal enhancement potential. […]
# Similarly, by plotting R2 versus concentration at five different concentrations of the Gd-DOTA-404 agent and determining the equation of the resulting line (see FIG. 3, right panel), we calculated a transverse relaxivity in plasma of 20.4 s−1/mM.
# [4] = tested on: flank A549 tumor (human non small cell lung cancer) xenograft; experiment: In vivo MRI of flank A549 xenograft mice; design: species or system mouse
# Method: For proof-of-concept in vivo imaging of tumor uptake of the Gd-DO3A-404 agent, nude athymic mouse with a flank A549 tumor (non small cell lung cancer) xenograft was scanned. […] Mice were anesthetized and scanning performed prior to contrast administration and at 1, 4, 24, 48, and 72 hours following contrast delivery. Imaging was performed on a 4.7 T Varian preclinical MRI scanner with a volume quadrature coil. T1-weighted images were acquired at all imaging time points using a fast spin echo scan with the following pulse sequence parameters: repetition time (TR)=206 ms, echo spacing=9 ms, echo train length=2, effective echo time (TE)=9 ms, 10 averages, with a 40×40 mm^2 field of view, 192×192 matrix, 10 slices of thickness lmm each.
# [5] = In vivo biodistribution by T1-weighted SPGR MRI of the abdomen; design: species or system mouse; conditions: 2.5 mg intravenous
# Method: In this example, we determined the in vivo biodistribution of the Gd-DO3A-404 after the contrast agent was administered (see Example 5). During the course of performing the experiments described in Example 4, we also acquired T1-weighted spoiled gradient (SPGR) images in the abdomen of the mice, to observe biodistribution. Abdominal cross-sections imaged included the myocardium (FIGS. 8-12, top image), the liver (FIGS. 8-12, center image), and a kidney (FIGS. 8-12, bottom image). Images are shown pre-contrast (FIG. 8), and at one hour (FIG. 9), 24 hours (FIG. 10), four days (FIG. 11) and seven days post-contrast (FIG. 12).
# [6] = tested on: orthotopic glioblastoma stem cell line 12.6; experiment: Brain tumor uptake by MRI in orthotopic glioblastoma model; assay type: in vivo, mouse
# Method: To investigate the use of Gd-DO3A-404 to detect tumors and metastases in situ, in particular, in the brain, we created an orthotopic glioblastoma model using cancer stem cells injected into the brain. To create the model, brains of mice were injected with cells from orthotopic glioblastoma stem cell line 12.6. After sufficient tumor growth, monitored with T2-weighted MRI, we imaged subjects pre-contrast and after delivery (24-72 hours) of two different doses of Gd-DO3A-404 (2.5 or 3.7 mg; ˜0.12−0.18 mmole/kg).
# [7] = tested on: A549 flank tumor; experiment: Tissue biodistribution by SF-ICPMS in A549-flank bearing mice; assay type: in vivo, mouse; conditions: 72 hours after administration; FIG. 16
# Method: In this extension of Example 6, we further examined the in vivo biodistribution of Gd-DO3A-404 after it is administered. Specifically, tissue biodistribution was measured in A549-flank bearing mice 72 hours after administration of Gd-DO3A-404. Nude athymic mice were sacrificed, perfused and tissues were collected and quantitated for Gd by high-resolution (magnetic-sector) inductively-coupled plasma mass spectrometry (SF-ICPMS). n=3 mice.
# [8] = tested on: Alpha-beta crystalline overexpressing mice (triple negative breast cancer model); experiment: MRI uptake in triple-negative breast cancer model; assay type: in vivo, mouse; conditions: over 48 hours post-administration; FIG. 17
# Method: Alpha-beta crystalline overexpressing mice (a triple negative breast cancer model) underwent MR imaging pre administration and 24 hours and 48 hours post-administration of […] (n=4).
# [9] = tested on: orthotopic U87 xenografts; experiment: MRI uptake in orthotopic U87 xenografts; assay type: in vivo, mouse; conditions: NOD-SCID mice; 24 and 48 hours post administration; FIG. 18 left
# Method: NOD-SCID mice with orthotopic U87 xenografts were imaged pre-administration, 24 hours, and 48 hours post administration of Gd-DO3A-404.
# [10] = tested on: Orthotopic GSC 115 (human glioma stem cell model); experiment: MRI uptake in orthotopic GSC 115 model; assay type: in vivo; conditions: 24 hours post administration; FIG. 18 right
# Method: Orthotopic GSC 115 was imaged at 24 hours post administration of Gd-DO3A-404. GSC is a human glioma stem cell model which was isolated from a human glioma patient.
# [11] = tested on: flank U87 (human glioma) xenograft; experiment: Simultaneous PET/MR imaging of U87 flank xenograft rat; assay type: in vivo
# Method: Simultaneous imaging was performed using a clinical Pet/MRI scanner. ^64Cu-DO3A-404 has the same structure as Gd-DO3A-404, except that ^64Cu, a positron emitting radionuclide, is chelated to the chelating moiety instead of Gd. ^64Cu-DO3A-404 was synthesized (and can be synthesized using the methods disclosed herein; see, e.g., Example 1). Both the ^64Cu-DO3A-404 and Gd-DO3A-404 chelates were injected simultaneously into a rat with a flank U87 (human glioma) xenograft.
# T1-weighted scans of the U87 flank xenograft were obtained using the clinical 3.0 T PET/MR. Rats were imaged pre- and 24 hours post-administration of the Gd-DO3A-404.
# Simultaneous PET/MR scans of the U87-flank bearing rat 24 hours post-simultaneous administration of both Gd-DO3A-404 (the MRI contrast agent) and ^64Cu-DO3A-404 (the PET contrast agent) were obtained.
# [12] = tested on: flank U87 (human glioma) tumor; experiment: In vivo MRI of flank U87 xenograft mice
# Method: To test uptake and retention in rodent models of human cancer, flank xenografts were established in mice for two distinct tumor types, A549 (human non small cell lung cancer, NSCLC) and U87 (human glioma). N=3 for each model. For pre-contrast imaging, T1-W images of the tumor and abdomen (FIG. 4; 2 leftmost images) and T1 maps of the tumor were obtained.
# At time zero (“contrast”), 2.5 mg of Gd-DO3A-404 (˜12 mmol/kg body mass) was delivered into the mice by intravenous injection. Animals were scanned pre-contrast and at various time points between one hour and seven days post-contrast (after one hour, 24 hours, 48 hours, three days, four days and seven days). T1 maps of the tumor were acquired for each time point, along with T1-weighted images of the tumor and the abdomen (see FIGS. 4 and 5).
# We the quantified the tumor to muscle ratio and compare it to baseline scans.
smiles,measurement,setting,value
CNC[C@H](O)[C@@H](O)[C@H](O)[C@H](O)CO.O=C([O-])CN1CCN(CC(=O)[O-])CCN(CC(=O)O)CCN(CC(=O)[O-])CC1.[Gd+3] [DOTAREM®],relaxivities of clinical T1 shortening contrast agents,[1],2 to 3 s⁻¹ mM⁻¹
C[N+](C)(C)CCOP(=O)([O-])OCCCCCCCCCCCCCCCCCCc1ccc(NC(=O)CN2CCN(CC(=O)[O-])CCN(CC(=O)[O-])CCN(CC(=O)[O-])CC2)cc1.[Gd+3] [Gd-DO3A-404],free Gd concentration,[2],0.081%
same,Longitudinal relaxivity (r1),[3]; in excipient,5.84 s⁻¹ mM⁻¹
same,Longitudinal relaxivity (r1),[3]; in plasma,5.74 s⁻¹ mM⁻¹
same,Longitudinal relaxivity (r1),[3]; in saline,5.68 s⁻¹ mM⁻¹
same,tumor to muscle T1-weighted signal ratio following delivery,"[4]; 2.5 mg intravenous, A549, versus pre-contrast, FIG. 6",approximately doubled
same,time of maximum tumor uptake,"[4]; 2.5 mg intravenous, NSCLC model, FIG. 4",24-48 hours post-contrast
same,duration of tumor uptake,"[4]; 2.5 mg intravenous, NSCLC model, FIG. 5",maintained over several days
same,MRI imaging of the tumor (T1-weighted enhancement),"[4]; 2.7 mg via tail vein injection, scans 1-72 hours, FIG. 2",significantly enhanced by 24 hours post-injection
same,tumor R1 relaxation rate,"[4]; A549, 48 hours post-contrast versus pre-contrast, FIG. 7",significantly increased
same,P-kinetic profile,[5],"including hepatobiliary excretion, that is similar to that of related alkylphosphocholine analogs"
same,circulation in the myocardium and blood pool,[5]; FIGS. 8-12,circulates for nearly up to a day
same,clearance from liver and kidney,"[5]; up to seven days, FIGS. 8-12","substantially cleared over time, with more rapid clearance occurring through the liver, and more prolonged clearance occurring through the kidney"
same,brain tumor uptake,"[6]; increased dose 3.7 mg, FIG. 15 bottom panel",uptake in one subject
same,brain tumor uptake,"[6]; lower dose 2.5 mg, FIG. 15 upper panel",no brain uptake was observed
same,tissue biodistribution (Gd by SF-ICPMS),[7],selectively taken up by tumor tissue
same,uptake in breast cancer tissue by MRI,[8],taken up by and localized to the breast cancer tissue
same,tumor uptake by T1-weighted MRI,[9],differentially taken up by the tumor tissue
same,tumor uptake by T1-weighted MRI,[10],differentially taken up by the tumor tumor tissue
same,tumor uptake by T1-weighted MR (clinical 3.0 T PET/MR),"[11]; 24 hours post-administration, FIG. 19",selective tumor uptake
same,tumor enhancement in MRI images (simultaneous PET/MR),"[11]; 24 hours post-simultaneous administration, FIG. 20",enhanced enhances in both the T1 and T2 MRI images
same,tumor to muscle T1-weighted signal ratio following delivery,"[12]; 2.5 mg intravenous, U87, versus pre-contrast, FIG. 6",approximately doubled
same,onset of tumor uptake,"[12]; 2.5 mg intravenous, U87 model, FIG. 4",already observable at one hour after delivery
same,level and duration of tumor uptake compared with NSCLC model,"[12]; 2.5 mg intravenous, U87 model, FIG. 5",appeared to reach higher levels and was maintained for a longer time period
same,tumor R1 relaxation rate,"[12]; U87, 48 hours post-contrast versus pre-contrast, FIG. 7",significantly increased
